Positions of bridges follow the written chain, without caps; N, C: chain ends. Non-standard residues stand in square brackets, D forms with d. Residues, ends and D or L forms follow the SMILES beside them. 2Nal = N[C@@H](Cc1ccc2ccccc2c1)C(=O)O; Ahp(2) = CCCCC[C@H](N)C(=O)O; NMeNle = CCCC[C@H](NC)C(=O)O; NHexGly = CCCCCCNCC(=O)O; Nle = CCCC[C@H](N)C(=O)O; Dab = NCC[C@H](N)C(=O)O; Dap = NC[C@H](N)C(=O)O
These compounds were tested against T1, mouse VISTA (mVISTA) (Mus musculus, UniProt Q9D659) (assay: Cell-Based Binding High-Content Assay For mVISTA (HC CBA mVISTA)). Conditions: read-out: HC CBA mVISTA IC50.
T1 construct: expressed in transfected cells; host or cells: Human embryonic kidney 293T cells
T1 sequence (Q9D659 33-308): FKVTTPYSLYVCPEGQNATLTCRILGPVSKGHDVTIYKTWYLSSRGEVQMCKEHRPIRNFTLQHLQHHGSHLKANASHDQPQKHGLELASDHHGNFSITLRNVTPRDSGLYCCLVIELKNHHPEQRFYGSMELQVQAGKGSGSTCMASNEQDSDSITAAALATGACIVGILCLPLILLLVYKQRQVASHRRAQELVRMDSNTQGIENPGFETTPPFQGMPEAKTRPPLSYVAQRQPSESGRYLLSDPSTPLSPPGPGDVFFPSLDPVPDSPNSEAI
Outline: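 Competition of compound with a biotinylated peptide (final 2 nM, 30 min at RT) for binding to mVISTA on 293T cells, run under no-wash or wash (1 h compound preincubation then removal) formats. Readout by Alexa 647–streptavidin imaging on a high-content platform; four-parameter logistic fit gave IC50.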

Structure (SMILES)	IC50 [nM]
CCCCCCN1CC(=O)N[C@@H](Cc2ccc(O)cc2)C(=O)N[C@@H](CCCC)C(=O)N[C@@H](CC(N)=O)C(=O)N[C@@H](CCCNC(=N)N)C(=O)N(C)[C@@H](CCCC)C(=O)N[C@@H](CCCCC)C(=O)N2CCC[C@H]2C(=O)N[C@@H](C(C)C)C(=O)N[C@@H](CC(=O)O)C(=O)N[C@H](C(=O)N[C@@H](CCN)C(=O)N[C@@H](CC(N)=O)C(=O)O)CSCC(=O)N[C@@H](Cc2ccccc2)C(=O)N[C@@H](Cc2c[nH]c3ccccc23)C(=O)N[C@@H](CC(=O)O)C1=O [compound 1131] ({CH2CO}-FWD[NHexGly]Y[Nle]NR[NMeNle][Ahp(2)]PVDC[Dab]N-OH; thioether N-14)	23.1
CCCCCCN1CC(=O)N[C@@H](Cc2ccc(O)cc2)C(=O)N[C@@H](CCCC)C(=O)N[C@@H](CC(N)=O)C(=O)N[C@@H](CCCNC(=N)N)C(=O)N(C)[C@@H](CCCC)C(=O)N[C@@H](CCCCC)C(=O)N2CCC[C@H]2C(=O)N[C@@H](C(C)C)C(=O)N[C@@H](CC(=O)O)C(=O)N[C@H](C(=O)N[C@@H](CCN)C(=O)N[C@@H](CCC(N)=O)C(=O)O)CSCC(=O)N[C@@H](Cc2ccccc2)C(=O)N[C@@H](Cc2c[nH]c3ccccc23)C(=O)N[C@@H](CC(=O)O)C1=O [compound 1132] ({CH2CO}-FWD[NHexGly]Y[Nle]NR[NMeNle][Ahp(2)]PVDC[Dab]Q-OH; thioether N-14)	36
CCCCCCN1CC(=O)N[C@@H](Cc2ccc(O)cc2)C(=O)N[C@@H](CCCC)C(=O)N[C@@H](CC(N)=O)C(=O)N[C@@H](CCCNC(=N)N)C(=O)N(C)[C@@H](CCCC)C(=O)N[C@@H](CCCCC)C(=O)N2CCC[C@H]2C(=O)N[C@@H](C(C)C)C(=O)N[C@@H](CC(=O)O)C(=O)N[C@H](C(=O)N[C@@H](CN)C(=O)N[C@@H](CC(N)=O)C(=O)O)CSCC(=O)N[C@@H](Cc2ccccc2)C(=O)N[C@@H](Cc2c[nH]c3ccccc23)C(=O)N[C@@H](CC(=O)O)C1=O [compound 1133] ({CH2CO}-FWD[NHexGly]Y[Nle]NR[NMeNle][Ahp(2)]PVDC[Dap]N-OH; thioether N-14)	11.5

More lines, now with the values ahead:

IC50 [nM]	Structure (SMILES)
13.7	CCCCCCN1CC(=O)N[C@@H](Cc2ccc(O)cc2)C(=O)N[C@@H](CCCC)C(=O)N[C@@H](CC(N)=O)C(=O)N[C@@H](CCCNC(=N)N)C(=O)N(C)[C@@H](CCCC)C(=O)N[C@@H](CCCCC)C(=O)N2CCC[C@H]2C(=O)N[C@@H](C(C)C)C(=O)N[C@@H](CC(=O)O)C(=O)N[C@H](C(=O)N[C@@H](CCN)C(=O)N[C@@H](CCC(N)=O)C(=O)O)CSCC(=O)N[C@@H](Cc2ccc3ccccc3c2)C(=O)N[C@@H](Cc2c[nH]c3ccccc23)C(=O)N[C@@H](CC(=O)O)C1=O [compound 1134] ({CH2CO}-[2Nal]WD[NHexGly]Y[Nle]NR[NMeNle][Ahp(2)]PVDC[Dab]Q-OH; thioether N-14)
39.1	CCCCCCN1CC(=O)N[C@@H](Cc2ccc(O)cc2)C(=O)N[C@@H](CCCC)C(=O)N[C@@H](CC(N)=O)C(=O)N[C@@H](CCCNC(=N)N)C(=O)N(C)[C@@H](CCCC)C(=O)N[C@@H](CCCCC)C(=O)N2CCC[C@H]2C(=O)N[C@@H](C(C)C)C(=O)N[C@@H](CC(=O)O)C(=O)N[C@H](C(=O)N[C@@H](CN)C(=O)N[C@@H](CCC(N)=O)C(=O)O)CSCC(=O)N[C@@H](Cc2ccc3ccccc3c2)C(=O)N[C@@H](Cc2c[nH]c3ccccc23)C(=O)N[C@@H](CC(=O)O)C1=O [compound 1135] ({CH2CO}-[2Nal]WD[NHexGly]Y[Nle]NR[NMeNle][Ahp(2)]PVDC[Dap]Q-OH; thioether N-14)
9.5	CCCCCCN1CC(=O)N[C@@H](Cc2ccc(O)cc2)C(=O)N[C@@H](CCCC)C(=O)N[C@@H](CC(N)=O)C(=O)N[C@@H](CCCNC(=N)N)C(=O)N(C)[C@@H](CCCC)C(=O)N[C@@H](CCCCC)C(=O)N2CCC[C@H]2C(=O)N[C@@H](C(C)C)C(=O)N[C@@H](CC(=O)O)C(=O)N[C@H](C(=O)N[C@@H](CN)C(=O)N[C@@H](CC(N)=O)C(=O)O)CSCC(=O)N[C@@H](Cc2ccc3ccccc3c2)C(=O)N[C@@H](Cc2c[nH]c3ccccc23)C(=O)N[C@@H](CC(=O)O)C1=O [compound 1136] ({CH2CO}-[2Nal]WD[NHexGly]Y[Nle]NR[NMeNle][Ahp(2)]PVDC[Dap]N-OH; thioether N-14)
